These are literature values, as cited in paper PMC4061246 (Biochimica et biophysica acta, 2014).

One may read the aqueous solubility as the concentration that dissolves in the medium under given conditions.

Where only a bound is given, the exact number is not on record here.

The conditions of this data set: reported.

In the case of `Cc1cc(C#N)cc(C)c1Oc1nc(Nc2ccc(C#N)cc2)nc(N)c1Br` [etravirine], the aqueous solubility was less than 1 µg/mL.

Regarding `Cc1cc(/C=C/C#N)cc(C)c1Nc1ccnc(Nc2ccc(C#N)cc2)n1` [rilpivirine], the aqueous solubility is 0.02 to 0.24 µg/mL.
